Drawing on US20240400560A1, “BICYCLIC HETEROCYCLIC DERIVATIVE HAVING VIRAL GROWTH INHIBITORY ACTIVITY AND PHARMACEUTICAL COMPOSITION CONTAINING SAME” (Shionogi & Co., Ltd., priority 2021, published 2024), this text covers IC50 and EC50 for 19 compounds.

Test [1] deals with SARS-CoV-2 3CL protease (Severe acute respiratory syndrome coronavirus 2, UniProt P0DTD1). As to the kind of experiment: Inhibitory activity test against SARS-CoV-2 3CL proteases. It is filed as biochemical. The conditions noted are these: read-out: IC50 (50% SARS-CoV-2 3CL protease inhibitory concentration).
Test [2] has as its system SARS-CoV-2. As to the kind of experiment: Inhibitory activity of cytopathic effect (CPE) in HEK293T/ACE2-TMPRSS2 cells. The test is classed as cell-based. The conditions noted are these: Severe acute respiratory syndrome coronavirus 2, HEK-293T, 72 h, HEK293T/ACE2-TMPRSS2 cells.
Where [3] appears, read: cultured 3 days, CellTiter-Glo 2.0 luminescence, read-out: EC50 (50% SARS-CoV-2 infected cell death inhibitory concentration).
Setting [4] is: 50% SARS-CoV-2 infected cell death inhibitory concentration, CellTiter-Glo 2.0 after 3 days culture, read-out: EC50.

Read-outs that look alike come from different tables or passages of the source.

As for `COc1nc(N(C)CC(F)(F)F)cc2c1c(=O)n(-c1cnc3cc(F)ccn13)c(=O)n2-c1ccc(F)c(Cl)c1` [Compound I-1006], the IC50 in test [1] is below 0.1 µM. Also, in test [2] (setting [3]), the EC50 is below 0.1 µM.
Consider `COc1nc(N2CCC(S(C)(=O)=O)C2)cc2c1c(=O)n(-c1cnc3cc(F)ccn13)c(=O)n2-c1ccc(F)c(Cl)c1` (centres unmarked) [Compound I-1007], for which the IC50 in test [1] was below 0.1 µM. Besides, the EC50 in test [2] (setting [3]) is 0.1 to 1 µM.
As to `COC[C@@H]1CCN(c2cc3c(c(OC)n2)c(=O)n(-c2cncc(Cl)c2)c(=O)n3-c2ccc(F)c(Cl)c2)C1` [Compound I-1008], in test [1], the IC50 is below 0.1 µM. The EC50 in test [2] (setting [3]) was below 0.1 µM.
For the compound `COc1nc(N2CCC(F)(F)C2)cc2c1c(=O)n(-c1cnc3cc(F)c(F)cn13)c(=O)n2-c1ccc(F)c(Cl)c1` [Compound I-1009], the IC50 in test [1] was below 0.1 µM. The EC50 in test [2] (setting [3]) is below 0.1 µM.
As for `COc1nc(N2CCC(C)(O)C2)cc2c1c(=O)n(-c1cncc(Cl)c1)c(=O)n2-c1ccc(F)c(Cl)c1` (centres unmarked) [Compound I-1010], in test [1], the IC50 is below 0.1 µM. The EC50 in test [2] (setting [3]) is below 0.1 µM.
Turning to `[2H]C([2H])([2H])O[C@@H]1CCN(c2cc3c(c(OC)n2)c(=O)n(-c2cnc4cc(F)ccn24)c(=O)n3-c2ccc(F)c(C(F)(F)F)c2)C1` [Compound I-1011], the IC50 in test [1] was below 0.1 µM. Besides, the EC50 in test [2] (setting [3]) was below 0.1 µM.
With `[2H]C([2H])([2H])O[C@@H]1CCN(c2cc3c(c(OC)n2)c(=O)n(-c2cncc(OCF)c2)c(=O)n3-c2ccc(F)c(F)c2)C1` [Compound I-1012], in test [1], the IC50 was below 0.1 µM. For the same compound, the EC50 in test [2] (setting [3]) is below 0.1 µM.
For the compound `COc1nc(N2CCOCC2)cc2c1c(=O)n(-c1cncc(Cl)c1)c(=O)n2-c1ccc(F)c(Cl)c1` [Compound I-1013], the IC50 in test [1] was below 0.1 µM. The EC50 in test [2] (setting [3]) is below 0.1 µM.
Regarding `COc1nc(N2CCC(F)(F)C2)cc2c1c(=O)n(-c1cnc3cc(F)ccn13)c(=O)n2-c1ccc(F)c(C(F)F)c1` [Compound I-1015], the IC50 in test [1] was below 0.1 µM. Moreover, in test [2] (setting [3]), the EC50 is below 0.1 µM.
As for `COc1nc(C2=CCOCC2)cc2c1c(=O)n(-c1cnc3cc(F)ccn13)c(=O)n2-c1ccc(F)c(Cl)c1` [Compound I-1016], the IC50 in test [1] was below 0.1 µM. The EC50 in test [2] (setting [3]) was below 0.1 µM.
With `COc1nc(N2CC(C#N)C2)cc2c1c(=O)n(-c1cnc3cc(F)ccn13)c(=O)n2-c1ccc(F)c(Cl)c1` [Compound I-1017], the IC50 in test [1] is below 0.1 µM. The EC50 in test [2] (setting [3]) is below 0.1 µM.
With `COc1nc(N2CCC(F)(F)C2)cc2c1c(=O)n(-c1cncc(C(F)F)c1)c(=O)n2-c1ccc(F)c(Cl)c1` [Compound I-1018], the IC50 in test [1] is below 0.1 µM. Besides, the EC50 in test [2] (setting [3]) is below 0.1 µM.
Regarding `C=C(C)c1cc2c(c(OC)n1)c(=O)n(-c1cnc3cc(F)ccn13)c(=O)n2-c1ccc(F)c(Cl)c1` [Compound I-1019], the IC50 in test [1] was determined as 0.011 µM. Besides, the EC50 in test [2] (setting [4]) turned out to be 0.57 µM.
On to `COc1nc(N2C[C@@H](F)[C@@H](F)C2)cc2c1c(=O)n(-c1cnc3cc(F)ccn13)c(=O)n2-c1ccc(F)c(F)c1` [Compound I-1020], for which, in test [1], the IC50 was below 0.1 µM. The EC50 in test [2] (setting [3]) was below 0.1 µM.
With `COc1nc(C2CCOCC2)cc2c1c(=O)n(-c1cnc3cc(F)ccn13)c(=O)n2-c1ccc(F)c(Cl)c1` [Compound I-1021], in test [1], the IC50 worked out at 0.012 µM. In addition, the EC50 in test [2] (setting [4]) was determined as 0.0161 µM.
Turning to `COc1nc(N2CCC(N(C)C)C2)cc2c1c(=O)n(-c1cncc(Cl)c1)c(=O)n2-c1ccc(F)c(Cl)c1` (centres unmarked) [Compound I-1022], the IC50 in test [1] is below 0.1 µM. Moreover, the EC50 in test [2] (setting [3]) was below 0.1 µM.
As to `CCc1nc(N2CCC(F)(F)C2)cc2c1c(=O)n(-c1cncc(Cl)c1)c(=O)n2-c1ccc(F)c(F)c1` [Compound I-1023], in test [1], the IC50 was below 0.1 µM. In addition, the EC50 in test [2] (setting [3]) is below 0.1 µM.
Consider `COc1nc(N2CC[C@@H](OC(F)F)C2)cc2c1c(=O)n(-c1cnc3cc(F)ccn13)c(=O)n2-c1ccc(F)c(F)c1` [Compound I-1024], for which, in test [1], the IC50 was below 0.1 µM. Besides, the EC50 in test [2] (setting [3]) is below 0.1 µM.
For the compound `COc1nc(N2CC[C@@H](O)C2)cc2c1c(=O)n(-c1cncc(OCF)c1)c(=O)n2-c1ccc(F)c(F)c1` [Compound I-1025], the IC50 in test [1] was below 0.1 µM. For the same compound, the EC50 in test [2] (setting [3]) was below 0.1 µM.
